Reference: EP1144368B1, “ACETYLENIC ALPHA-AMINO ACID-BASED SULFONAMIDE HYDROXAMIC ACID TACE INHIBITORS” (priority 1999, dated 2000)
Structures can show the parent of a compound that is named as a salt.

The compounds below were run on THP-1 cells (assay: THP-1 Soluble Protein Assay (LPS-stimulated; ELISA of TNF-a, TNF-R p75/80, TNF-R p55/60, IL-8)). Conditions: 3 µM.
Assay type: cell-based, human
Description: Each vial of cells are cultured for about two weeks prior to being used for an assay and then are used for only 4 to 6 weeks to screen compounds.
Plates are placed into an incubator set at 5% CO2 and at 37° C. After 4 hours of incubation, 300 ml/well of tissue culture supernatant (TCS) is removed for use in an TNF-a ELISA.
Percent change in each soluble protein evaluated from the "vehicle positive control" was calculated for each compound concentration with the following formula: % Change =(pg/ml (compound) - pg/ml (veh pos control))/(pg/ml (veh pos control) - pg/ml (veh neg control))x 100 [formula]
For the soluble protein (TNF-a, p75/80, p55/60, IL-8) studies under stimulated conditions, the mean pg/ml of duplicate wells were determined and the results expressed as percent change from "vehicle positive control".

With `CC#CCOc1ccc(S(=O)(=O)N2CC[S+]([O-])C(C)(C)C2C(=O)NO)cc1` (single isomer, unassigned) [Example 255] the “THP % inhibition @ 3 µM” value was 95%.

Same assay, conditions: Homo sapiens, THP-1, 3 µM; read-out: THP % Inhibition @ 3µM

`CC#CCOc1ccc(S(=O)(=O)N2CCCN(C(=O)c3ccccc3)CC2C(=O)NO)cc1` (centres unmarked) [Example 49, 4-Benzoyl-1-(4-but-2-ynyloxy-benzenesulfonyl)-[1,4]diazepane-2-carboxylic acid hydroxyamide] was tested, and the inhibition at 3 µM was 32%.

Same assay, conditions: Homo sapiens, THP-1, read-out: THP % inhibition @ 3 µM

Work on `CC1(C)SCCN(S(=O)(=O)c2ccc(OCC#CCO)cc2)C1C(=O)NO` (centres unmarked) [Example 61, 4-[4-(4-Hydroxy-but-2-ynyloxy)-benzenesulfonyl]-2,2-dimethyl-thiomorpholine-3-carboxylic acid hydroxyamide] yielded an inhibition at 3 µM of 89%.

Same assay, conditions: Homo sapiens, THP-1, read-out: THP % inhibition @ 3 µM, 3 µM

In order of rising inhibition at 3 µM:
1. CC#CCOc1ccc(S(=O)(=O)N(CC(C)C)C(C(=O)NO)C(C)C)cc1 (centres unmarked) [Example 113, 2-[(4-But-2-ynyloxy-benzenesulfonyl)-isobutyl-amino]-N-hydroxy-3-methyl-butyramide]  0%
2. CC#CCOc1ccc(S(=O)(=O)N(C)C2(C(=O)NO)CCCCC2)cc1 [Example 136, 1-[{[4-(2-Butynyloxy)phenyl]sulfonyl}(methyl)amino] -N-hydroxycyclohexanecarboxamide]  0%
3. CC#CCOc1ccc(S(=O)(=O)N(Cc2cccnc2)C2(C(=O)NO)CCCCC2)cc1 [Example 137, 1-[{[4-(2-Butynyloxy)phenyl]sulfonyl}(3-pyridinylmethyl)amino] N-hydroxycyclohexanecarboxamide]  0%
4. CC#CCOc1ccc(S(=O)(=O)N(C)CC(=O)NO)cn1 [Example 131, 2-[(6-But-2-ynyloxy-pyridine-3-sulfonyl)-methyl-amino]-N-hydroxy-acetamide]  18%
5. CC#CCOc1ccc(S(=O)(=O)N(CCN2CCOCC2)CC(=O)NO)cc1 [Example 124, 2-[{[4-(But-2-ynyloxy)phenyl]sulfonyl}(2-morpholin-4-ylethyl)amino]-N-hydroxyacetamide hydrochloride]  24%
6. CC#CCOc1ccc(S(=O)(=O)N2CCN(C)CC2C(=O)NO)cc1 (centres unmarked) [Example 56, 1-(4-But-2-ynyloxy-benzenesulfonyl)-4-methyl-piperazine-2-carboxylic acid hydroxyamide hydrochloride]  32%
7. CC#CCOc1ccc(S(=O)(=O)N(CCCc2ccccc2)C(C(=O)NO)C(C)C)cc1 (centres unmarked) [Example 111, 2-[(4-But-2-ynyloxy-benzenesulfonyl)-(3-phenyl-propyl)-amino]-N-hydroxy-3-methyl-butyramide]  35%
8. CC#CCOc1ccc(S(=O)(=O)N(CCN2CCOCC2)C(C(=O)NO)C(C)C)cc1 (centres unmarked) [Example 123, 2-[[[4-(2-Butynyloxy)phenyl]sulfonyl][2-(4-morpholinyl)ethyl]amino]-N-hydroxy-3-methylbutanamide]  35%
9. CC#CCOc1ccc(S(=O)(=O)N(CCC)C(C(=O)NO)C(C)C)cc1 (centres unmarked) [Example 110, 2-[(4-But-2-ynyloxy-benzenesulfonyl)-propyl-amino]-N-hydroxy-3-methyl-butyramide]  47%
10. CC#CCOc1ccc(S(=O)(=O)N(CC2CC2)C(C(=O)NO)C(C)C)cc1 (centres unmarked) [Example 112, 2-[(4-But-2-ynyloxy-benzenesulfonyl)-cyclopropylmethyl-amino]-N-hydroxy-3-methyl-butyramide]  50%
11. CC#CCOc1ccc(S(=O)(=O)N(C)[C@@H](C(=O)NO)C2CCC(N(CC)CC)CC2)cc1 (stereo partly drawn) [Example 128, ((2R)-{[4-(2-Butynyloxy)phenyl]sulfonyl}(methyl)amino)[(4-diethylamino)cyclohexyl]-N-hydroxyethamide]  51%
12. CC#CCOc1ccc(S(=O)(=O)N(CCCN2CCOCC2)C(C(=O)NO)C(C)C)cc1 (centres unmarked) [Example 119, 2-{{[4-(2-Butynyloxy)phenyl]sulfonyl}[3-(4-morpholinyl)propyl]amino}-N-hydroxy-3-methylbutanamide]  61%
13. CC#CCOc1ccc(S(=O)(=O)N(CCCN2CCN(C)CC2)C(C(=O)NO)C(C)C)cc1 (centres unmarked) [Example 120, 2-{{[4-(2-Butynyloxy)phenyl]sulfonyl}[3-(4-methyl-1-piperazinyl)propyl]amino}-N-hydroxy-3-methylbutanamide hydrochloride]  61%
14. CC#CCOc1ccc(S(=O)(=O)N(CCCCN(CC)CC)C(C(=O)NO)C(C)C)cc1 (centres unmarked) [Example 121, 2-{{[4-(2-Butynyloxy)phenyl]sulfonyl}[4-(diethylamino)butyl]amino}-N-hydroxy-3-methylbutanamide]  65%
15. CC#CCOc1ccc(S(=O)(=O)N(CC#CCN2CCN(C)CC2)C(C(=O)NO)C(C)C)cc1 (centres unmarked) [Example 125, 2-{{[4-(2-Butynyloxy)phenyl]sulfonyl}[4-(4-methyl-1-piperazinyl)-2-butynyl]amino}-N-hydroxy-3-methylbutanamide]  72%
16. CC#CCOc1ccc(S(=O)(=O)N(Cc2cccnc2)C(C(=O)NO)C(C)C)cc1 (centres unmarked) [Example 114, 2-[(4-But-2-ynyloxy-benzenesulfonyl)-pyridin-3-ylmethyl-amino]-N-hydroxy-3-methyl-butyramide]  75%
17. CC#CCOc1ccc(S(=O)(=O)N(Cc2cccnc2)[C@@H](C(=O)NO)C2CCCCC2)cc1 [Example 116, 2-[(4-But-2-ynyloay-benzenesulfonyl)-pyridin-3-ylmethyl-amino]-2-cyclohexyl-N-hydroxy-acetamide]  75%
18. CC#CCOc1ccc(S(=O)(=O)N(CC)C(C(=O)NO)C(C)C)cc1 (centres unmarked) [Example 108, 2-[(4-But-2-ynyloxy-benzenesulfonyl)-ethyl-amino]-N-hydroxy-3-methyl-butyramide]  76%
19. CC#CCOc1ccc(S(=O)(=O)N(CC#CCN2CCN(C)CC2)C(C)C(=O)NO)cc1 (centres unmarked) [Example 135, 2-{[[4-(2-butynyloxy)phenyl]sulfonyl][4-(4-methyl-1-piperazinyl)-2-butynylamino]}-N-hydroxypropanamide]  76%
20. CC#CCOc1ccc(S(=O)(=O)N(CCCN(CC)CC)C(C(=O)NO)C(C)C)cc1 (centres unmarked) [Example 118, 2-{{[4-(2-Butynyloxy)phenyl]sulfonyl}[3-(diethylamino)propyl]amino}-N-hydroxy-3-methylbutanamide]  77%
21. CC#CCOc1ccc(S(=O)(=O)N2CCN(C(=O)OC(C)(C)C)CC2C(=O)NO)cc1 (centres unmarked) [Example 58, 4-(4-But-2-ynyloxy-benzenesulfonyl)-3-hydroxycarbamoyl-piperazine-1-carboxylic acid tert-butyl ester]  79%
22. CC#CCOc1ccc(S(=O)(=O)N(Cc2cccnc2)C(C)C(=O)NO)cc1 (centres unmarked) [Example 33, 2-[(4-But-2-ynyloxy-benzenesulfonyl)-pyridin-3-ylmethyl-amino]-N-hydroxy-propionamide hydrochloride]  80%
23. CC#CCOc1ccc(S(=O)(=O)N(C)C(C(=O)NO)C(C)(C)SCCN2CCOCC2)cc1 (centres unmarked) [Example 140, 2-({[4-(2-Butynyloxy)phenyl]sulfonyl)(methyl)amino]-N-hydroxy-3 methyl-3-[(2(4-morpholinylethyl)sulfanyl]-butanamide hydrochloride]  80%
24. CCCCC#CCOc1ccc(S(=O)(=O)N2CCSC(C)(C)C2C(=O)NO)cc1 (centres unmarked) [Example 40, 4-(4-Hept-2-ynyloxy-benzenesulfonyl)-2,2-dimethyl-thiomorpholine-3-carboxylic acid hydroxyamide]  82%
25. CC#CCOc1ccc(S(=O)(=O)N(CC#CCNC)C(C(=O)NO)C(C)C)cc1 (centres unmarked) [Example 127, 2-{{[4-(2-Butynyloxy)phenyl]sulfonyl}[4-(methylamino)-2-butynyl]amino}-N-hydroxy-3-methylbutanamide]  83%
26. C#CCN(C(C(=O)NO)C(C)C)S(=O)(=O)c1ccc(OCC#CC)cc1 (centres unmarked) [Example 109, 2-[{[4-(2-Butynyloxy)phenyl]sulfonyl}(2-propynyl)amino]-N-hydroxy-3-methylbutanamide]  85%
27. CC#CCOc1ccc(S(=O)(=O)N(C)C(C(=O)NO)C(C)(C)SCCN2CCN(C)CC2)cc1 (centres unmarked) [Example 141]  86%
28. CC#CCOc1ccc(S(=O)(=O)N(C)C(C(=O)NO)C(C)(C)SCCN2CCCC2)cc1 (centres unmarked) [Example 143, 2-({[4-(2-Butynyloxy)phenyl]sulfonyl)(methyl)amino]-N-hydroxy-3-methyl-3-{[2(1-pyrrolidinyl)ethyl]sulfanyl}butanamide]  86%
29. CC#CCOc1ccc(S(=O)(=O)N(Cc2ccc(OCCN3CCCCC3)cc2)C(C(=O)NO)C2CCCCC2)cc1 (centres unmarked) [Example 117, 2-{(4-But-2-ynyloxy-benzenesulfonyl)-[4-(2-piperidin-1-yl-ethoxy)-benzyl]-amino}-2-cyclohexyl-N-hydroxy-acetamide]  88%
30. CC#CCOc1ccc(S(=O)(=O)N(C)C(C(=O)NO)C2CCCCC2)cc1 (centres unmarked) [Example 115, 2-[(4-But-2-ynyloxy-benzenesulfonyl)-methyl-amino]-2-cyclohexyl-N-hydroxy-acetamide]  89%
31. CC#CCOc1ccc(S(=O)(=O)N(C)C(C(=O)NO)C(C)(C)SCCN(CC)CC)cc1 (centres unmarked) [Example 142, 2-({[4-(2-Butynyloxy)phenyl]sulfonyl)(methyl)amino]-N-hydroxy-3 methyl-3-{[2-(diethylamino)ethyl]sulfanyl}butanamide]  89%
32. CC#CCOc1ccc(S(=O)(=O)N2CC[S+]([O-])C(C)(C)C2C(=O)NO)cc1 (single isomer, unassigned) [Example 256]  92%
33. CC#CCOc1ccc(S(=O)(=O)N(C)[C@@H](C(=O)NO)[C@H]2CC[C@H](O)CC2)cc1 [Example 130]  92%
34. CC#CCOc1ccc(S(=O)(=O)N2Cc3ccccc3CC2C(=O)NO)cc1 (centres unmarked) [Example 41, 2-(4-But-2-ynyloxy-benzenesulfonyl)-1,2,3,4-tetrahydro-isoquinoline-3-carboxylic acid hydroxyamide]  93%
35. CC#CCOc1ccc(S(=O)(=O)N(C)C(C(=O)NO)C(C)C)cc1 (centres unmarked) [Example 9, 2-[(4-But-2-ynyloxy-benzenesulfonyl)-methyl-amino]-N-hydroxy-3-methyl-butyramide]  94%
